Test results as given in patent publication US20260124315A1, “CATALYST AUGMENTED TARGET SPECIFIC POLYPEPTIDE” (TECHNISCHE UNIVERSITAT BERLIN, priority 2022, published 2026).
Like-named read-outs stand apart in the source and are kept apart here. No end group written: not given here.

Experiments:
[1] = Fluorogenic catalysis of ProRes in PBS versus serum (10% FBS in PBS); settings: 37° C., 24 h
Description: (a) Catalytic deprotection of the propargylated dye (ProRes, 100 μM) occurs in the presence of either Pd(OAc)2 (Pd, 1.4 μM), or in the presence of NB-HRGDH-Pd (NB—Pd, 1.4 μM). The catalysis was performed at physiological conditions (pH 7.4, 37° C.) in PBS or in serum (10% FBS in PBS). The fluorescence measurements were normalised against the value of fluorescence after catalysis in PBS (100%) and corrected by the fluorescence of the product, Resorufin, in PBS and serum, respectively. (b) Scheme representing the catalysis of ProRes by NB—Pd in the presence of serum and the catalytic deactivation of Pd(OAc)2 by serum.
In solution. […] The mixtures were shaken at 700 rpm and 37° C. in a Thermomixer, and reactions were monitored after 24 h using a FLUOstar Omega multilabel reader (Ex/Em: 540/590 nm). […] The fluorescence measurements were normalised against the value of fluorescence after catalysis in PBS (100%) and corrected by the fluorescence of the product, Resorufin, in PBS and serum, respectively.
Pd(OAc)2 and Pd-peptide (Pd-HRGDHC) were incubated with the previously described sensor (ProRes) in PBS or in 10% FBS—PBS at 37° C. in a Thermomixer, and reactions were monitored after 24 h using a multilabel reader. Fluorescence increment was observed after catalysis. […]

SK-BR-3 cells [2] = assay: Prodrug-into-drug conversion, extracellular, SK-BR-3; assay type: cell-based; settings: for catalytic conversion of ProPTX into paclitaxel in cell culture: catalyst 1.4 μM + ProPTX 0.3 μM, SK-BR-3; for cell death: in combination with ProPTX 0.3 μM, SK-BR-3, 5 days, PrestoBlue
Description: Error bars: LSD from n=2. Significance was determined by one-way analysis of variance (ANOVA): ^nsP>0.05, *P<0.05.
Error bars: ±SD from n=3.
Extracellular conversion. […] The cells treated with PTX and ProPTX at 0.3 μM were used as positive and negative controls, respectively. After 5d, PrestoBlue cell viability reagent (10% v/v) was added to each well and the plate was incubated for 90 min. […] Experiments were performed in triplicates.
SK-BR-3 cells were seeded and incubated with a solution of Pd(OAc)2 or Pd-peptide (Pd-HRGDHC) in combination with either DMSO or ProPTX (0.3 μM). After 5 days, Presto blue cell viability reagent was added and fluorescence emission was detected using a multilabel plate reader.
After 5d, Presto blue cell viability reagent was added to each well and fluorescence emission was detected using a multilabel fluorescence reader.

SK-BR-3 cells [3] = settings: read-out: EC50 (cell viability), SK-BR-3, day 5, PrestoBlue
Description: Dose-response curves of Pd (Pd(OAc)2) and Pd-peptide (HRGDHC-Pd) at different concentrations (100-1 μM) in HER2+ breast cancer cell line SK-BR-3. Cell viability was measured on day 5 using PrestoBlue reagent. Error bars: ±SD from n=3.
Cell viability was measured on day 5 using PrestoBlue reagent. Error bars: ±SD from n=3.
Cells were seeded in a 96-well plate format (at 2,000 cells per well) and incubated for 24 h before treatment. […] Untreated cells were incubated with DMSO (0.1% v/v). After 5d of incubation, cell viability was determined as described above. All conditions were normalised to the untreated cells (100%) and curves fitted using GraphPad Prism using a sigmoidal variable slope curve. Experiments were performed in triplicates.
Presto blue reagent was added to quantitatively measure viability by fluorescence detection and EC50 values were calculated by plotting dose-response curves.

[4] = Catalytic screening of metallopeptides (ProRes to resorufin fluorescence); settings: Pd-peptides 10 μM, ProRes 100 μM, PBS, 37° C., 24 h
Description: Catalytic screening of metallopeptides. Metallopeptides, either mixed or as individual Pd-peptides (Pd-HRGDHC (SEQ ID NO: 6) or Pd-LLEYLKR (SEQ ID NO: 7) (10 μM) were incubated with Pd-labile off/on sensor O-propargyl-resorufin (ProRes)^2 (100 μM) in PBS (500 μL). The mixtures were shaken at 700 rpm and 37° C. in a Thermomixer and reactions were monitored after 24 h using a FLUOstar Omega multilabel reader (Ex/Em: 540/590 nm).

[5] = system: SK-BR-3 breast cancer cells; assay: Dose-response of paclitaxel versus paclitaxel prodrug in SK-BR-3 cells; assay type: cell-based; settings: Homo sapiens, semilog dose-response
Description: This vast drop of anticancer activity highlights the essential role of the C2′-OH of PTX for binding its target.

[6] = system: HER2 negative cells MCF-7; assay: Prodrug-into-drug conversion, intracellular (1 h incubation, wash), MCF-7; assay type: cell-based; settings: NB—Pd 1 h, washed, then ProPTX 0.3 μM, 5 days
Description: Cell viability was measured on day 5 using PrestoBlue reagent. Error bars: LSD from n=3. Significance was determined by one-way analysis of variance (ANOVA): ^nsP>0.05, *P<0.05, **P<0.01, ****P<0.0001.
Intracellular conversion. SK-BR-3 and MCF-7 cells were seeded in a 96-well plate format (at 2,000 cells per well) and incubated for 24 h before treatment. Each well was then replaced with a solution of NB—Pd (20 μg/mL, 1.4 μM) in culture media and incubated for 1 h. Cells were then washed with PBS and fresh media containing either DMSO (0.1% v/v) or ProPTX (0.3 μM) was added. The cells treated with PTX and ProPTX at 0.3 μM were used as positive and negative controls, respectively. After 5d, PrestoBlue cell viability reagent (10% v/v) was added to each well and the plate was incubated for 90 min. Fluorescence emission was detected using a FLUOstar Omega multilabel reader (Ex/Em: 540/590 nm). Experiments were performed in triplicates.
SK-BR-3 and MCF-7 cells (HER2 positive and negative respectively) were seeded and incubated with a solution of NB—Pd for 1 h. Cells were then washed with PBS and fresh media containing either DMSO or ProPTX (0.3 μM) was added. After 5 days, Presto blue cell viability reagent was added and fluorescence emission was detected. […] Results are to be found in FIG. 6.

With CC(=O)[O-].CC(=O)[O-].[Pd+2] [Pd(OAc)2, reference compound] the “catalytic activity in serum” value ([1]; 10% FBS-PBS) was “lost its catalytic properties”, the “catalytic conversion of ProPTX into paclitaxel in cell culture” value (shortened to “catalytic conversion”) (SK-BR-3 cells [2]) was “Non-significant catalysis” and the EC50 (SK-BR-3 cells [3]) was 23 µM. The EC50 (SK-BR-3 cells [3]; listed as Pd) was 39 µM.

For “LLEYLKR (also: Pd complex) [reference compound]”, the “catalytic activity (conversion of ProRes into fluorescent resorufin)” value [4] was “does not show any catalytic activity”.

For CC(=O)O[C@H]1C(=O)[C@@]2(C)[C@H]([C@H](OC(=O)c3ccccc3)[C@]3(O)C[C@H](OC(=O)[C@H](O)[C@@H](NC(=O)c4ccccc4)c4ccccc4)C(C)=C1C3(C)C)[C@]1(OC(C)=O)CO[C@@H]1C[C@@H]2O [PTX, paclitaxel], the EC50 [5] was 1.8 nM.

In the case of C1=C\CC/C=C\CC/1.[Cl][Pd][Cl] [Pd(Cod)Cl2, reference compound], the “catalytic conversion” value (SK-BR-3 cells [2]) is reported as “poor catalytic efficiency”.

With HRGDHC-OH [Pd-peptide] the “catalytic activity (conversion of ProRes into fluorescent resorufin)” value [4] was “show catalytic activity”, the “catalytic activity in serum relative to catalytic activity in PBS” value ([1]; 10% FBS-PBS vs PBS) was “at least 18%” and the “catalytic conversion” value (SK-BR-3 cells [2]) was “converting the prodrug”. The cell death (SK-BR-3 cells [2]) was greater than 40%.

B1: NB—Pd: HER2 nanobody-HRGDH fusion complexed with Pd after incubation with Pd(OAc)2 at molar ratio 1:1 (conjugate)
VHH: QVQLQESGGGSVQAGGSLKLTCAASGYIFNSCGMGWYRQSPGRERELVSRISGDGDTWHKESVKGRFTISQDNVKKTLYLQMNSLKPEDTAVYFCAVCYNLETYWGQGTQVTVSSGGGGSHRGDHENLYFQSHHHHHH
With B1 the cell death (SK-BR-3 cells [2]) was greater than 70% and the “effect on cell viability” value [6] was “no effect”.
